Test results taken from publication PMC8786932, “Bicyclic azetidines target acute and chronic stages of Toxoplasma gondii by inhibiting parasite phenylalanyl t-RNA synthetase” (Nature Communications, 2022).
Values joined by “and” are separate entries in the source; they are usually repeats but may differ in a detail not shown here. Identical values can stand only once. Like-named read-outs stand apart in the source and are kept apart here.

How the values were obtained:
TgPheRS[M484I] = target: T1, TgPheRS[M484I] (Toxoplasma gondii, UniProt A0A125YPN6, M484I); test: Enzyme assay, TgPheRS M484I; assay type: biochemical; conditions: for enzyme assay readout (raw): M484I
T1 sequence (A0A125YPN6 1-525 M484I): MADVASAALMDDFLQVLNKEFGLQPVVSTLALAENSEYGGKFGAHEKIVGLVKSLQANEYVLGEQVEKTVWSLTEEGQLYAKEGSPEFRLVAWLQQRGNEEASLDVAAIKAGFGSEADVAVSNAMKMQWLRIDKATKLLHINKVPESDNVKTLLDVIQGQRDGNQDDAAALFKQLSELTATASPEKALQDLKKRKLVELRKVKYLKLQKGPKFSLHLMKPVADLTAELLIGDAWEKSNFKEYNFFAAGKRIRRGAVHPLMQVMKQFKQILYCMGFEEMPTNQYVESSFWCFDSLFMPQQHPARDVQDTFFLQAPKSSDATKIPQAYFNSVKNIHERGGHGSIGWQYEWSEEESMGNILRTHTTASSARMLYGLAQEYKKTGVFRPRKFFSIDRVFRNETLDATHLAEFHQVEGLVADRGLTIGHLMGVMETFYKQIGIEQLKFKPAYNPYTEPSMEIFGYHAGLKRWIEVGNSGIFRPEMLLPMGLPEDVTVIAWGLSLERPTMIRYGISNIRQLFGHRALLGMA
T1 sequence (S8EZ50 1-675 partner): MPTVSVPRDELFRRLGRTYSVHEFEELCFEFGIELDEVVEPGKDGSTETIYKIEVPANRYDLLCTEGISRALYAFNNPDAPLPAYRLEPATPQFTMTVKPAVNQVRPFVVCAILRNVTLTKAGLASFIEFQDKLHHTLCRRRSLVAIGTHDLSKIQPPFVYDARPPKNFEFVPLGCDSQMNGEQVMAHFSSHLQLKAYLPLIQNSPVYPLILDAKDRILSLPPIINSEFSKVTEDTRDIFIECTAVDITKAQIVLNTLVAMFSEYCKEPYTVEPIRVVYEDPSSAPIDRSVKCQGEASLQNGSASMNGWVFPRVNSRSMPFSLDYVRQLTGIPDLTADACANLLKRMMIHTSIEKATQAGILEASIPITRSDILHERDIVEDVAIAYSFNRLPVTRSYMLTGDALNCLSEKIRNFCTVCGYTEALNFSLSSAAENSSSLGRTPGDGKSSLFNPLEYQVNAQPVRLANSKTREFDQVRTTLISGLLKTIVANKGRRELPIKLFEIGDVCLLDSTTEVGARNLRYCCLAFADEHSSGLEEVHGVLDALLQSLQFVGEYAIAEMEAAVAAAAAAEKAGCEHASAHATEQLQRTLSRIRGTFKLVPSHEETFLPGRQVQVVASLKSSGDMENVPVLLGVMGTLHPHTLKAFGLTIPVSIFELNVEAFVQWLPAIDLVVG

[1] = test system: T. gondii RHΔhxgprtΔku80 (RHΔΔ); test: Tachyzoite lytic assay, wild-type parent; assay type: cell-based, Toxoplasma gondii; conditions: for % Parasite Growth: RHΔΔ; for EC50: Toxoplasma gondii
Procedure: Parasite growth on HFF monolayers was monitored using a 96-well plate-based lytic assay modified from a previously described protocol. […]. Freshly harvested parasites (7.5 × 10^4 /well) were added to each well (in 100uL volume) to reach the final concentration range (10 μM to 0.0005 μM, 200 μL/well, 0.1% DMSO). Plates were incubated for 72 h at 37 °C then culture medium was aspirated and monolayers were fixed with 100% ethanol (ETOH) for 5 min at room temperature (RT). After rinsing with water, wells were stained with 0.1% crystal violet solution for 10 min at RT. Plates were rinsed with water, air dried, and absorption quantified on the Cytation 3 multi-mode imager at 570 nm wavelength. % parasite growth was calculated as 100−[(OD value for infected cultures at each concentration of compound/average OD value for no compound and no parasite infection) × 100]. EC50 values were calculated based on the mean of three biological replicates with each replicate containing two technical replicates.

[2] = target: T2, recombinant wild-type TgPheRS (Toxoplasma gondii, UniProt A0A125YPN6); test: Malachite green aminoacylation enzyme assay, wild-type TgPheRS; assay type: biochemical; conditions: for Tg PheRS enzyme assay raw signal: replicates
T2 sequence (A0A125YPN6 1-525): T1 sequence (A0A125YPN6 1-525 M484I)
T2 sequence (S8EZ50 1-675 partner): T1 sequence (S8EZ50 1-675 partner)

COc1ccc(NC(=O)N2CCCCN3[C@H](CN(C)C)[C@H](c4ccc(C#Cc5ccccc5)cc4)[C@@H]3C2)cc1 [BRD7929]
enzyme assay readout (raw) (TgPheRS[M484I]; 0.000050 μM): 0.2597 and 0.2568 and 0.2561 | enzyme assay readout (raw) (TgPheRS[M484I]; 0.000500 μM): 0.2555 and 0.2526 and 0.2544 | enzyme assay readout (raw) (TgPheRS[M484I]; 0.005000 μM): 0.2503 and 0.2478 and 0.2487 | enzyme assay readout (raw) (TgPheRS[M484I]; 0.050000 μM): 0.2472 and 0.2441 and 0.2410 | enzyme assay readout (raw) (TgPheRS[M484I]; 0.500000 μM): 0.2388 and 0.2402 and 0.2378 | enzyme assay readout (raw) (TgPheRS[M484I]; 5.000000 μM): 0.2341 and 0.2345 and 0.2337 | enzyme assay readout (raw) (TgPheRS[M484I]; 50.000000 μM): 0.2266 and 0.2241 | IC50 (TgPheRS[M484I]; Table S4, M484I, read-out: IC50 (enzyme inhibition)): 0.135 µM | % Parasite Growth ([1]; 3.33333333 uM, replicate wells): -62.34% and -8.91% and -41.4% and -6.78% and -65.46% and -56.23% and -31.38% and -99.25% and -132.9% and -155.42% and -68.19% and -11.78% | % Parasite Growth ([1]; 0.00152416 uM): 68.94% and 89.11% and 79.46% and 70.31% and 60.77% | % Parasite Growth ([1]; 0.00457247 uM): 84.64% and 87.57% and 82.22% and 46.33% and 48.4% | % Parasite Growth ([1]; 0.01371742 uM): 76.37% and 86.87% and 80.22% and 58.24% and 60.43% | EC50 ([1]; 72 h, read-out: EC50, RHΔΔ): 0.082 µM | EC50 ([1]; read-out: EC50, RHΔΔ): 0.053 µM | EC50 ([1]; Table S4, Wild type, read-out: EC50 (growth restriction)): 0.036 µM | IC50 [2]: 0.031 µM | Tg PheRS enzyme assay raw signal ([2]; BRD7929 0.000001 μM): 0.2010 (2×) and 0.1986 | Tg PheRS enzyme assay raw signal ([2]; BRD7929 0.000010 μM): 0.1950 and 0.1940 and 0.1990 | Tg PheRS enzyme assay raw signal ([2]; BRD7929 0.000100 μM): 0.1980 and 0.1900 and 0.1990 | Tg PheRS enzyme assay raw signal ([2]; BRD7929 0.001000 μM): 0.1940 and 0.1790 and 0.1870 | Tg PheRS enzyme assay raw signal ([2]; BRD7929 0.010000 μM): 0.1697 and 0.1750 and 0.1724 | Tg PheRS enzyme assay raw signal ([2]; BRD7929 0.100000 μM): 0.1290 and 0.1332 and 0.1400 | Tg PheRS enzyme assay raw signal ([2]; BRD7929 1.000000 μM): 0.1100 and 0.1180 and 0.1090 | Tg PheRS enzyme assay raw signal ([2]; BRD7929 10.000000 μM): 0.0928 and 0.1144 and 0.1108 | Tg PheRS enzyme assay raw signal ([2]; BRD7929 100.000000 μM): 0.1051 and 0.0940 and 0.1066 | enzyme assay readout (raw, malachite green, 620 nm) ([2]; WT, BRD7929 100.000000 μM): 0.1051 and 0.0940 and 0.1066
